Source: publication PMC5218480 (PLoS ONE, 2017)

System: MV-4-11 cells
Assay: Gene expression microarray analysis (Affymetrix PrimeView) and GSEA
Assay type: cell-based, human
Set-up: RFU PODN (11730768_x_at) / Fold change /veh PODN (11730768_x_at) / RFU LINC00158 (11744669_a_at) / Fold change /veh LINC00158 (11744669_a_at) / RFU DUSP10 (11751237_a_at) / Fold change /veh DUSP10 (11751237_a_at) / RFU ID3 (11757404_x_at) / Fold change /veh ID3 (11757404_x_at) / RFU PLEKHG5 (11737974_s_at) / Fold change /veh PLEKHG5 (11737974_s_at) / RFU LRRC4B (11730491_at) / Fold change /veh LRRC4B (11730491_at) / RFU GIMAP4 (11747438_a_at) / Fold change /veh GIMAP4 (11747438_a_at) / RFU KRT8 (11758183_x_at) / Fold change /veh KRT8 (11758183_x_at) / RFU CNN1 (11734310_a_at) / Fold change /veh CNN1 (11734310_a_at) / RFU VPS37D (11726825_at) / Fold change /veh VPS37D (11726825_at) / RFU C10orf10 (11716522_x_at) / Fold change /veh C10orf10 (11716522_x_at) / RFU KIR2DL2 /// KIR2DL4 /// KIR2DL5A /// KIR2DL5B /// KIR2DS1 /// KIR2DS2 /// KIR2DS3 /// KIR2DS4 /// KIR3DL3 /// KIR3DL3 /// KIR3DS1 (11738374_at) / Fold change /veh KIR2DL2 /// KIR2DL4 /// KIR2DL5A /// KIR2DL5B /// KIR2DS1 /// KIR2DS2 /// KIR2DS3 /// KIR2DS4 /// KIR3DL3 /// KIR3DL3 /// KIR3DS1 (11738374_at) / RFU C1QL1 (11718748_at) / Fold change /veh C1QL1 (11718748_at) / RFU TMPRSS4 (11747572_a_at) / Fold change /veh TMPRSS4 (11747572_a_at) / RFU HAMP (11756126_x_at) / Fold change /veh HAMP (11756126_x_at) / RFU RNFT2 (11725882_a_at) / Fold change /veh RNFT2 (11725882_a_at) / RFU NR4A2 (11747474_a_at) / Fold change /veh NR4A2 (11747474_a_at) / RFU ABCC12 (11746883_a_at) / Fold change /veh ABCC12 (11746883_a_at) / RFU TMEM136 (11760407_x_at) / Fold change /veh TMEM136 (11760407_x_at) / RFU CLDN22 /// WWC2 (11732394_at) / Fold change /veh CLDN22 /// WWC2 (11732394_at) / RFU HLA-DPB1 (11760878_x_at) / Fold change /veh HLA-DPB1 (11760878_x_at) / RFU SPINT1 (11716480_a_at) / Fold change /veh SPINT1 (11716480_a_at) / RFU GAP43 (11754022_s_at) / Fold change /veh GAP43 (11754022_s_at) / RFU A4GNT (11735810_at) / Fold change /veh A4GNT (11735810_at) / RFU PRB3 (11715151_x_at) / Fold change /veh PRB3 (11715151_x_at) / RFU TUBB4B (11761932_at) / Fold change /veh TUBB4B (11761932_at) / RFU CAPN14 (11732068_a_at) / Fold change /veh CAPN14 (11732068_a_at) / RFU TMCC2 (11721928_a_at) / Fold change /veh TMCC2 (11721928_a_at) / RFU IRGQ (11745062_a_at) / Fold change /veh IRGQ (11745062_a_at) / RFU FAM174B (11720279_a_at) / Fold change /veh FAM174B (11720279_a_at) / RFU TMPRSS4 (11748680_a_at) / Fold change /veh TMPRSS4 (11748680_a_at) / RFU FAM212B (11763350_a_at) / Fold change /veh FAM212B (11763350_a_at) / RFU PLEKHG5 (11743358_a_at) / Fold change /veh PLEKHG5 (11743358_a_at) / RFU ZSCAN30 (11745921_a_at) / Fold change /veh ZSCAN30 (11745921_a_at) / RFU CMKLR1 (11741424_a_at) / Fold change /veh CMKLR1 (11741424_a_at) / RFU LOC101060620 /// MAPK8IP1 (11723275_at) / Fold change /veh LOC101060620 /// MAPK8IP1 (11723275_at) / RFU SPTSSB (11747773_x_at) / Fold change /veh SPTSSB (11747773_x_at) / RFU PRSS12 (11739890_at) / Fold change /veh PRSS12 (11739890_at) / RFU BIN1 (11741810_x_at) / Fold change /veh BIN1 (11741810_x_at) / RFU WNT11 (11732464_a_at) / Fold change /veh WNT11 (11732464_a_at) / RFU C10orf10 (11716521_a_at) / Fold change /veh C10orf10 (11716521_a_at) / RFU C5orf56 (11738089_at) / Fold change /veh C5orf56 (11738089_at) / RFU CYB561 (11721691_x_at) / Fold change /veh CYB561 (11721691_x_at) / RFU ANKRD19P (11752326_a_at) / Fold change /veh ANKRD19P (11752326_a_at) / RFU OR2T12 /// OR2T33 /// OR2T8 (11738714_s_at) / Fold change /veh OR2T12 /// OR2T33 /// OR2T8 (11738714_s_at) / RFU VCAN (11748164_a_at) / Fold change /veh VCAN (11748164_a_at) / RFU JSRP1 (11732532_at) / Fold change /veh JSRP1 (11732532_at) / RFU KRTAP10-11 (11738290_x_at) / Fold change /veh KRTAP10-11 (11738290_x_at) / RFU MYO3A (11730013_a_at) / Fold change /veh MYO3A (11730013_a_at) / RFU EBF3 (11725865_a_at) / Fold change /veh EBF3 (11725865_a_at) / RFU CAMK2N1 (11719241_x_at) / Fold change /veh CAMK2N1 (11719241_x_at) / RFU C5orf56 (11738088_a_at) / Fold change /veh C5orf56 (11738088_a_at) / RFU OLFML3 (11715873_a_at) / Fold change /veh OLFML3 (11715873_a_at) / RFU LOC100653217 /// NTM (11731650_a_at) / Fold change /veh LOC100653217 /// NTM (11731650_a_at) / RFU MAPK11 (11762145_a_at) / Fold change /veh MAPK11 (11762145_a_at) / RFU FIZ1 (11724087_x_at) / Fold change /veh FIZ1 (11724087_x_at) / RFU OASL (11726364_x_at) / Fold change /veh OASL (11726364_x_at) / RFU SOX15 (11748057_x_at) / Fold change /veh SOX15 (11748057_x_at) / RFU CD79A (11719716_a_at) / Fold change /veh CD79A (11719716_a_at) / RFU HIST1H1D (11736915_at) / Fold change /veh HIST1H1D (11736915_at) / RFU CASKIN2 (11723855_a_at) / Fold change /veh CASKIN2 (11723855_a_at) / RFU LOC730098 (11760151_x_at) / Fold change /veh LOC730098 (11760151_x_at) / RFU OR4N2 (11742367_at) / Fold change /veh OR4N2 (11742367_at) / RFU PRRT2 (11749266_a_at) / Fold change /veh PRRT2 (11749266_a_at) / RFU SNX32 (11753110_a_at) / Fold change /veh SNX32 (11753110_a_at) / RFU CDHR5 (11726645_a_at) / Fold change /veh CDHR5 (11726645_a_at) / RFU RCAN1 (11760418_a_at) / Fold change /veh RCAN1 (11760418_a_at) / RFU FAM167A (11723789_a_at) / Fold change /veh FAM167A (11723789_a_at) / RFU FAM26E (11764081_at) / Fold change /veh FAM26E (11764081_at) / RFU ISYNA1 (11749810_s_at) / Fold change /veh ISYNA1 (11749810_s_at) / RFU ACY1 (11761880_at) / Fold change /veh ACY1 (11761880_at) / RFU 11764098_at / Fold change /veh 11764098_at / RFU SAMD14 (11745864_x_at) / Fold change /veh SAMD14 (11745864_x_at) / RFU NPB (11741838_a_at) / Fold change /veh NPB (11741838_a_at) / RFU TMPRSS6 (11731388_a_at) / Fold change /veh TMPRSS6 (11731388_a_at) / RFU KRTAP10-2 (11738614_at) / Fold change /veh KRTAP10-2 (11738614_at) / RFU ARHGAP8 /// PRR5-ARHGAP8 (11727945_x_at) / Fold change /veh ARHGAP8 /// PRR5-ARHGAP8 (11727945_x_at) / RFU KRTAP5-7 /// NADSYN1 (11734609_at) / Fold change /veh KRTAP5-7 /// NADSYN1 (11734609_at) / RFU RASL12 (11751679_a_at) / Fold change /veh RASL12 (11751679_a_at) / RFU CDKN2B (11736163_a_at) / Fold change /veh CDKN2B (11736163_a_at) / RFU PRF1 (11729649_at) / Fold change /veh PRF1 (11729649_at) / RFU, ZNF638 /// ZNF638-IT1 / Fold change vs veh, ZNF638 /// ZNF638-IT1 / RFU, PANK3 / Fold change vs veh, PANK3 / RFU, SH3YL1 / Fold change vs veh, SH3YL1 / RFU, ZEB2 / Fold change vs veh, ZEB2 / RFU, NRIP1 / Fold change vs veh, NRIP1 / RFU, PTTG1IP / Fold change vs veh, PTTG1IP / RFU, CAPN2 / Fold change vs veh, CAPN2 / RFU, MED14 / Fold change vs veh, MED14 / RFU, SNORA58 / Fold change vs veh, SNORA58 / RFU, C1orf63 / Fold change vs veh, C1orf63 / RFU, LRRFIP1 / Fold change vs veh, LRRFIP1 / RFU, NDUFAF7 / Fold change vs veh, NDUFAF7 / RFU, SLC12A2 / Fold change vs veh, SLC12A2 / RFU, IBTK / Fold change vs veh, IBTK / RFU, ESF1 / Fold change vs veh, ESF1 / Fold change vs veh, TMEM50B / RFU, TAOK1 / Fold change vs veh, TAOK1 / RFU, ACBD3 / Fold change vs veh, ACBD3 / RFU, TMA16 / Fold change vs veh, TMA16 / RFU, RWDD3 / Fold change vs veh, RWDD3 / RFU, BCAT1 / Fold change vs veh, BCAT1 / RFU, EDEM3 / Fold change vs veh, EDEM3 / RFU, TMEM33 / Fold change vs veh, TMEM33 / RFU, WDR75 / Fold change vs veh, WDR75 / RFU, AHCTF1 / Fold change vs veh, AHCTF1 / RFU, TFRC / Fold change vs veh, TFRC / RFU, ZDHHC17 / Fold change vs veh, ZDHHC17 / RFU, NOM1 / Fold change vs veh, NOM1 / RFU, ARL8B / Fold change vs veh, ARL8B / RFU, ZBTB11 / Fold change vs veh, ZBTB11 / RFU, TAMM41 / Fold change vs veh, TAMM41 / RFU, KIAA1704 /// LOC100996395 / Fold change vs veh, KIAA1704 /// LOC100996395 / RFU, ING1 / Fold change vs veh, ING1 / RFU, TRMT61B / Fold change vs veh, TRMT61B / RFU, FUBP3 / Fold change vs veh, FUBP3 / RFU, TP53 / Fold change vs veh, TP53 / RFU, TNKS2 / Fold change vs veh, TNKS2 / RFU, ZFP14 / Fold change vs veh, ZFP14 / RFU, ACTR2 / Fold change vs veh, ACTR2 / RFU, PPP3R1 / Fold change vs veh, PPP3R1 / RFU, PIK3R1 / Fold change vs veh, PIK3R1 / RFU, HNRNPA1 / Fold change vs veh, HNRNPA1 / RFU, RNF170 / Fold change vs veh, RNF170 / RFU, ZNF28 / Fold change vs veh, ZNF28 / RFU, RNGTT / Fold change vs veh, RNGTT / RFU, OGT / Fold change vs veh, OGT / RFU, BRD1 / Fold change vs veh, BRD1 / RFU, MARS / Fold change vs veh, MARS / RFU, ZNF655 / Fold change vs veh, ZNF655 / RFU, FAHD1 / Fold change vs veh, FAHD1 / RFU, BDP1 / Fold change vs veh, BDP1 / RFU, LRRCC1 / Fold change vs veh, LRRCC1 / RFU, ARID1A / Fold change vs veh, ARID1A / RFU, ZNF146 / Fold change vs veh, ZNF146 / RFU, ZNF330 / Fold change vs veh, ZNF330 / RFU, GPN3 / Fold change vs veh, GPN3 / RFU, C9orf123 / Fold change vs veh, C9orf123 / RFU, N4BP2L2 / Fold change vs veh, N4BP2L2 / RFU, ARFIP1 / Fold change vs veh, ARFIP1 / RFU, FAM179B / Fold change vs veh, FAM179B / RFU, BCL10 / Fold change vs veh, BCL10 / RFU, UHRF1BP1L / Fold change vs veh, UHRF1BP1L / RFU, BET1 / Fold change vs veh, BET1 / RFU, CNOT2 / Fold change vs veh, CNOT2 / RFU, ZNF268 / Fold change vs veh, ZNF268 / Fold change vs veh, ZNF507 / RFU, DGCR2 / Fold change vs veh, DGCR2 / RFU, WDSUB1 / Fold change vs veh, WDSUB1 / Fold change vs veh, HSP90B1 /// MIR3652 / RFU, ADSS / Fold change vs veh, ADSS / RFU, GK / Fold change vs veh, GK / RFU, ZNF148 / Fold change vs veh, ZNF148 / RFU, TAF9 / Fold change vs veh, TAF9 / RFU, SLC1A5 / Fold change vs veh, SLC1A5 / RFU, SLMO2 / Fold change vs veh, SLMO2 / RFU, ABCC4 / Fold change vs veh, ABCC4 / RFU, LOC101060439 /// RAP1B / Fold change vs veh, LOC101060439 /// RAP1B / RFU, RFX7 / Fold change vs veh, RFX7 / RFU, GTPBP10 / Fold change vs veh, GTPBP10 / RFU, CNEP1R1 / Fold change vs veh, CNEP1R1 / RFU, BIVM-ERCC5 /// ERCC5 / Fold change vs veh, BIVM-ERCC5 /// ERCC5 / RFU, ILF3 / Fold change vs veh, ILF3 / RFU 11762660_at / Fold change /veh 11762660_at / RFU VCAN (11757783_s_at) / Fold change /veh VCAN (11757783_s_at) / RFU DDX43 (11728927_at) / Fold change /veh DDX43 (11728927_at) / RFU KRT8 (11758188_x_at) / Fold change /veh KRT8 (11758188_x_at) / RFU NKD1 (11759106_at) / Fold change /veh NKD1 (11759106_at) / RFU SRD5A1 (11742802_a_at) / Fold change /veh SRD5A1 (11742802_a_at) / RFU TPSAB1 /// TPSB2 (11721975_s_at) / Fold change /veh TPSAB1 /// TPSB2 (11721975_s_at) / RFU GSTM3 (11746129_a_at) / Fold change /veh GSTM3 (11746129_a_at) / RFU IL23R (11737362_x_at) / Fold change /veh IL23R (11737362_x_at) / RFU TMEM51 (11727254_a_at) / Fold change /veh TMEM51 (11727254_a_at) / RFU PIWIL2 (11732686_x_at) / Fold change /veh PIWIL2 (11732686_x_at) / RFU ORM1 (11744905_x_at) / Fold change /veh ORM1 (11744905_x_at) / RFU CCDC152 (11743942_at) / Fold change /veh CCDC152 (11743942_at) / RFU ECM1 (11717891_a_at) / Fold change /veh ECM1 (11717891_a_at) / RFU IL23R (11748794_a_at) / Fold change /veh IL23R (11748794_a_at) / RFU TNFAIP8L3 (11732012_x_at) / Fold change /veh TNFAIP8L3 (11732012_x_at) / RFU MBOAT4 (11741988_at) / Fold change /veh MBOAT4 (11741988_at) / RFU 11764193_at / Fold change /veh 11764193_at / RFU TMEM53 (11763286_at) / Fold change /veh TMEM53 (11763286_at) / RFU MAGEB2 (11727129_at) / Fold change /veh MAGEB2 (11727129_at) / RFU TMEM200A (11744735_a_at) / Fold change /veh TMEM200A (11744735_a_at) / RFU CCDC152 (11751479_a_at) / Fold change /veh CCDC152 (11751479_a_at) / RFU FAM211A (11726209_a_at) / Fold change /veh FAM211A (11726209_a_at) / RFU RGS16 (11746705_a_at) / Fold change /veh RGS16 (11746705_a_at) / RFU VCAN (11755009_s_at) / Fold change /veh VCAN (11755009_s_at) / RFU RHOB (11743442_s_at) / Fold change /veh RHOB (11743442_s_at) / RFU RGS16 (11720943_a_at) / Fold change /veh RGS16 (11720943_a_at) / RFU RGS16 (11720944_at) / Fold change /veh RGS16 (11720944_at) / RFU, VPS4B / Fold change vs veh, VPS4B / RFU, CREB1 / Fold change vs veh, CREB1 / RFU, DNAJC13 / Fold change vs veh, DNAJC13 / RFU, GNAQ / Fold change vs veh, GNAQ / RFU, CDK5R1 / Fold change vs veh, CDK5R1 / RFU, ZRANB3 / Fold change vs veh, ZRANB3 / RFU, CUL4A / Fold change vs veh, CUL4A / RFU, CCNY / Fold change vs veh, CCNY / RFU, UFL1 / Fold change vs veh, UFL1 / RFU, COG3 / Fold change vs veh, COG3 / RFU, DIAPH2 / Fold change vs veh, DIAPH2 / RFU, SKA2 / Fold change vs veh, SKA2 / RFU, AFF3 / Fold change vs veh, AFF3 / RFU, LMF1 / Fold change vs veh, LMF1 / RFU, IPO11 / Fold change vs veh, IPO11 / RFU, DFFB / Fold change vs veh, DFFB / RFU, FOXP1 / Fold change vs veh, FOXP1 / RFU, CARD8 / Fold change vs veh, CARD8 / RFU, STRN3 / Fold change vs veh, STRN3 / RFU, ADK / Fold change vs veh, ADK / RFU, RASSF2 / Fold change vs veh, RASSF2 / RFU, WIPF1 / Fold change vs veh, WIPF1 / RFU, LARP1B / Fold change vs veh, LARP1B / RFU, RASA1 / Fold change vs veh, RASA1 / RFU, RB1 / Fold change vs veh, RB1 / RFU, PPFIA1 / Fold change vs veh, PPFIA1 / RFU, MAT2A / Fold change vs veh, MAT2A / RFU, CCT5 / Fold change vs veh, CCT5 / RFU, WDR92 / Fold change vs veh, WDR92 / RFU, CUX1 / Fold change vs veh, CUX1 / RFU, TTC7A / Fold change vs veh, TTC7A / RFU, TMEM135 / Fold change vs veh, TMEM135 / RFU, DEPTOR / Fold change vs veh, DEPTOR / RFU, CPM / Fold change vs veh, CPM / RFU, DNAJB6 / Fold change vs veh, DNAJB6 / RFU, CACNA2D3 / Fold change vs veh, CACNA2D3 / RFU, DTX4 / Fold change vs veh, DTX4 / RFU, TFCP2 / Fold change vs veh, TFCP2 / RFU, GMCL1 /// GMCL1P1 / Fold change vs veh, GMCL1 /// GMCL1P1 / RFU, AEBP2 / Fold change vs veh, AEBP2 / RFU, SNHG1 /// SNORD22 /// SNORD25 /// SNORD26 /// SNORD27 /// SNORD28 /// SNORD29 /// SNORD31 / Fold change vs veh, SNHG1 /// SNORD22 /// SNORD25 /// SNORD26 /// SNORD27 /// SNORD28 /// SNORD29 /// SNORD31 / Fold change (Aza/veh), C12orf56 (ProbeSet 11735607_a_at) / Fold change (ACY-1035/veh), C12orf56 (ProbeSet 11735607_a_at) / Fold change (Aza/veh), FGFR1OP (ProbeSet 11751329_s_at) / Fold change (ACY-1035/veh), FGFR1OP (ProbeSet 11751329_s_at) / Fold change (Aza/veh), VPS36 (ProbeSet 11739960_a_at) / Fold change (ACY-1035/veh), VPS36 (ProbeSet 11739960_a_at) / RFU SYPL1 (11715823_x_at) / Fold change /veh SYPL1 (11715823_x_at) / RFU IGFBP7 (11715501_s_at) / Fold change /veh IGFBP7 (11715501_s_at) / RFU REEP3 (11722064_at) / Fold change /veh REEP3 (11722064_at) / RFU IGLL1 (11728026_x_at) / Fold change /veh IGLL1 (11728026_x_at): dose or concentration left out as unconfirmed
Details: ProbeSet 11739696_s_at; LIST D

Structure (SMILES): Nc1ncn([C@@H]2O[C@H](CO)[C@@H](O)[C@H]2O)c(=O)n1 [azacitidine]
- Fold change vs veh, AFF3: 0.52
